Data from paper PMC7242238 (Clinical Drug Investigation, 2020).
Read-outs that look alike come from different tables or passages of the source.

What was measured:
[1] = tested on: healthy subjects; assay: CYP3A inhibitors study Cohort 1: safety assessments; format: in vivo, human; details: of 14 subjects, by treatment period
[2] = 12 healthy male subjects; single oral 2-mg doses of 14C-naldemedine; cited from earlier work
[3] = format: in vivo, human
[4] = format: in vivo, human; details: for CL/F / AUC(0-inf) / AUC(0-t) / half-life / k el: Cohort 1: naldemedine 0.2 mg alone or with itraconazole 200 mg, n = 14; for AUC(0-inf): AUC0–inf; for AUC(0-t): AUC0–last; for half-life: t1/2,z; for k el: λz
[5] = format: in vivo, human; details: for CL/F / AUC(0-inf) / AUC(0-t) / half-life / k el: Cohort 2: naldemedine 0.2 mg alone or with fluconazole 200 mg, n = 14; for AUC(0-inf): AUC0–inf; for AUC(0-t): AUC0–last; for half-life: t1/2,z; for k el: λz
[6] = CYP3A inducer study: pharmacokinetics of naldemedine alone or with rifampin; format: in vivo, human; details: for AUC(0-inf): AUC0–inf; for AUC(0-t): AUC0–last; for half-life: t1/2,z; for k el: λz
[7] = tested on: healthy subjects; assay: P-gp inhibitor study: safety assessments; format: in vivo, human; details: of 13 subjects
[8] = tested on: healthy subjects; assay: CYP3A inhibitors study Cohort 2: safety assessments; format: in vivo, human; details: of 14 subjects, by treatment period
[9] = tested on: healthy subjects; details: cited from earlier work
[10] = tested on: spontaneous bowel movements; details: cited from earlier work
[11] = tested on: healthy subjects; assay: CYP3A inducer study: safety assessments; details: of 14 subjects; by treatment period
[12] = coadministration of cyclosporine 600 mg vs naldemedine 0.4 mg alone
[13] = male, human, plasma, oral, 0.4 mg
[14] = male, human, plasma, po, 0.4 mg
[15] = coadministration of itraconazole vs naldemedine 0.2 mg alone
[16] = human, plasma, oral, 0.2 mg, geometric mean (CV %)
[17] = human, plasma, oral, 0.2 mg, mean (SD)
[18] = coadministration of fluconazole vs naldemedine 0.2 mg alone
[19] = coadministration of rifampin 600 mg QD vs naldemedine 0.2 mg alone
[20] = human, plasma, oral, 0.2 mg, naldemedine 0.2 mg alone or with rifampin 600 mg QD, n = 14, geometric mean (CV %)
[21] = human, plasma, oral, 0.2 mg, naldemedine 0.2 mg alone or with rifampin 600 mg QD, n = 14, mean (SD)

CCC(C)n1ncn(-c2ccc(N3CCN(c4ccc(OCC5COC(Cn6cncn6)(c6ccc(Cl)cc6Cl)O5)cc4)CC3)cc2)c1=O (stereo not drawn) [itraconazole, reference compound]
subjects with TEAEs [1]: 14.3%

CC(C)(NC(=O)C1=C(O)[C@@H]2Oc3c(O)ccc4c3[C@@]23CCN[C@H](C4)[C@]3(O)C1)c1nc(-c2ccccc2)no1 [nor-naldemedine]
share of the systemic exposure of unchanged naldemedine [2]: 9–13%

CC(C)(NC(=O)C1=C(O)[C@@H]2Oc3c(O)ccc4c3[C@@]23CCN(CC2CC2)[C@H](C4)[C@]3(O)C1)c1nc(-c2ccccc2)no1 [Naldemedine]
effect of coadministration on median naldemedine Tmax ([3]; coadministration of cyclosporine): not notably affected
increase of naldemedine AUC0–inf [3, 12]: 1.78 fold
increase of naldemedine AUC0–last [3, 12]: 1.79 fold
increase of naldemedine Cmax [3, 12]: 1.45 fold
AUC(0-inf) [3, 13]: 38.9 ng·h/mL
AUC(0-t) [3, 13]: 38.6 ng·h/mL
Cmax [3, 13]: 4.86 ng/mL
half-life [3, 13]: 10.6 h
k el [3, 13]: 1.81e-05 s⁻¹
AUC(0-inf) [3, 14]: 39.5 ng·h/mL
AUC(0-t) [3, 14]: 39.1 ng·h/mL
Cmax [3, 14]: 4.9 ng/mL
Tmax [3, 14]: 0.75 h
half-life [3, 14]: 10.7 h
k el [3, 14]: 1.82e-05 s⁻¹
CL/F ([3]; naldemedine 0.4 mg alone or with cyclosporine 600 mg, n = 13, geometric mean (CV %)): 10.3 (17.3) L/h
CL/F ([4]; geometric mean (CV %)): 7.41 (37.7) L/h
CL/F ([4]; mean (SD)): 8.03 (4.39) L/h
effect of coadministration on median naldemedine Tmax ([4]; coadministration of itraconazole): not notably affected
increase of naldemedine AUC0–inf [4, 15]: 2.91 fold
increase of naldemedine AUC0–last [4, 15]: 2.65 fold
increase of naldemedine Cmax [4, 15]: 1.12 fold
Cmax ([4]; human, plasma, oral, 0.2 mg): 3.56 ng/mL
Tmax ([4]; human, plasma, oral, 0.2 mg): 0.75 h
AUC(0-inf) [4, 16]: 27 ng·h/mL
AUC(0-inf) [4, 17]: 28.3 ng·h/mL
AUC(0-t) [4, 16]: 26.7 ng·h/mL
AUC(0-t) [4, 17]: 28.1 ng·h/mL
half-life [4, 16]: 10.4 h
half-life [4, 17]: 10.7 h
k el [4, 16]: 1.85e-05 s⁻¹
k el [4, 17]: 1.9e-05 s⁻¹
Cmax ([4]; human, plasma, po, 0.2 mg): 3.77 ng/mL
CL/F ([5]; geometric mean (CV %)): 7.36 (16.5) L/h
CL/F ([5]; mean (SD)): 7.45 (1.16) L/h
effect of coadministration on median naldemedine Tmax ([5]; coadministration of fluconazole): not notably affected
increase of naldemedine AUC0–inf [5, 18]: 1.90 fold
increase of naldemedine AUC0–last [5, 18]: 1.88 fold
increase of naldemedine Cmax [5, 18]: 1.38 fold
Cmax ([5]; human, plasma, oral, 0.2 mg): 3.48 ng/mL
Tmax ([5]; human, plasma, oral, 0.2 mg): 1 h
AUC(0-inf) [5, 16]: 27.2 ng·h/mL
AUC(0-inf) [5, 17]: 27.5 ng·h/mL
AUC(0-t) [5, 16]: 26.9 ng·h/mL
AUC(0-t) [5, 17]: 27.3 ng·h/mL
half-life [5, 16]: 10.1 h
half-life [5, 17]: 10.4 h
k el [5, 16]: 1.9e-05 s⁻¹
k el [5, 17]: 1.95e-05 s⁻¹
Cmax ([5]; human, plasma, po, 0.2 mg): 3.57 ng/mL
effect of coadministration on median naldemedine Tmax ([6]; coadministration of rifampin): not notably affected
decrease of naldemedine AUC0–last [6, 19]: 83%
decrease of naldemedine Cmax [6, 19]: 38%
Cmax ([6]; human, plasma, oral, 0.2 mg): 2.72 ng/mL
Tmax ([6]; human, plasma, oral, 0.2 mg): 1 h
AUC(0-inf) [6, 20]: 21.8 ng·h/mL
AUC(0-inf) [6, 21]: 22.1 ng·h/mL
AUC(0-t) [6, 20]: 21.5 ng·h/mL
AUC(0-t) [6, 21]: 21.8 ng·h/mL
half-life [6, 20]: 11.7 h
half-life [6, 21]: 11.9 h
k el [6, 20]: 1.64e-05 s⁻¹
k el [6, 21]: 1.67e-05 s⁻¹
Cmax ([6]; human, plasma, po, 0.2 mg): 2.8 ng/mL
CL/F ([6]; naldemedine 0.2 mg alone or with rifampin 600 mg QD, n = 14, geometric mean (CV %)): 9.19 (19.2) L/h
CL/F ([6]; naldemedine 0.2 mg alone or with rifampin 600 mg QD, n = 14, mean (SD)): 9.35 (1.86) L/h
Tmax ([6]; naldemedine 0.2 mg alone or with rifampin 600 mg QD, n = 14, median (range)): 1.00 (0.50, 2.50) h
subjects with TEAEs ([7]; naldemedine 0.4 mg alone or plus cyclosporine 600 mg): 7.7%
subjects with headache (TEAE) [7]: 7.7%
subjects with TEAEs [1]: 7.1%
subjects with TEAEs [8]: 7.1%
dose linearity of pharmacokinetics ([9]; dose range of 0.2–0.4 mg): linear pharmacokinetics
safety and tolerability ([9]; naldemedine doses of 0.1 to 100 mg, healthy subjects): safe and well tolerated
clinical benefit compared with placebo ([10]; naldemedine 0.1 mg): no significant differences
clinical benefit (spontaneous bowel movements) compared with placebo ([10]; naldemedine 0.2- and 0.4-mg doses): significant clinical benefits
subjects with TEAEs [11]: no TEAEs
